Measured values from patent US8680290B2, “Isoxazoline derivatives and their use as herbicides” (Syngenta Limited, priority 2004, dated 2014).

How the values were obtained:
[1] = test system: Monocotyledonous and dicotyledonous test plants; test: Example B1 herbicidal action, application post-emergence (Table B1a); assay type: in vivo; conditions: 250 g/ha, evaluated after 3 weeks, scale 0-10
Summary of the method: (§1)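 Visual damage rating, 10 = plant dead and 0 = unharmed, taken at 3 weeks for post-emergence and 4 weeks for pre-emergence treatment. Application by spray of formulated aqueous solution either immediately after sowing or at 8–9 days' growth, with mono- and dicot plants kept in a greenhouse.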

[2] = test system: Monocotyledonous and dicotyledonous test plants; test: Example B1 herbicidal action, application pre-emergence (Table B1b); assay type: in vivo; conditions: 250 g/ha, evaluated after 4 weeks
Summary of the method: as §1

Structure (SMILES) | herbicidal damage rating, Abutilon [1] | herbicidal damage rating, Amaranthus [1] | herbicidal damage rating, Digitaria [1] | herbicidal damage rating, Panicum [1] | herbicidal damage rating, Setaria [1] | herbicidal damage rating, Sida [1] | herbicidal action (damage rating 0-10), Amaranthus [2] | herbicidal action (damage rating 0-10), Digitaria [2] | herbicidal action (damage rating 0-10), Panicum [2] | herbicidal action (damage rating 0-10), Setaria [2] | herbicidal action (damage rating 0-10), Sida [2]
Cn1nc(C(F)(F)F)c(C(F)(F)S(=O)(=O)C2=NOC(C)(C)C2)c1OCC(F)(F)F [2.01] | 8 | 5 | 7 | 5 | 5 | 6 | 10 | 10 | 10 | 10 | 9
Cn1nc(C(F)(F)F)c(C(F)(F)S(=O)(=O)C2=NOC(C)(C)C2)c1Cl [2.03] | 7 | 0 | 7 | 7 | 7 | 6 | 10 | 10 | 10 | 10 | 8
Cn1nc(C(F)(F)F)c(C(Cl)S(=O)(=O)C2=NOC(C)(C)C2)c1Cl (centres unmarked) [2.05] | 4 | 0 | 3 | 7 | 0 | 3 | 5 | 9 | 10 | 10 | 8
Cn1nc(C(F)(F)F)c(C(Br)(Br)S(=O)(=O)C2=NOC(C)(C)C2)c1OCC(F)(F)F [2.09] | 7 | 7 | 8 | 8 | 7 | 2 | 10 | 10 | 10 | 10 | 8
Cn1nc(C(F)(F)F)c(C(F)(F)S(=O)(=O)C2=NOC(C)(C)C2)c1OC(F)F [2.11] | 7 | 5 | 7 | 7 | 7 | 7 | 10 | 10 | 10 | 10 | 9
Cn1nc(C(F)(F)F)c(C(F)(Cl)S(=O)(=O)C2=NOC(C)(C)C2)c1OCC(F)(F)F (centres unmarked) [2.12] | 6 | 0 | 6 | 7 | 7 | 6 | 10 | 10 | 10 | 10 | 8
Cn1nc(C(F)(F)F)c(C(Cl)(Cl)S(=O)(=O)C2=NOC(C)(C)C2)c1OCC(F)(F)F [2.13] | 6 | 7 | 5 | 7 | 8 | 7 | 10 | 10 | 10 | 10 | 7
Cn1nc(C(F)(F)F)c(C(F)(Cl)S(=O)(=O)C2=NOC(C)(C)C2)c1OC(F)F (centres unmarked) [2.14] | 7 | 8 | 7 | 7 | 4 | 7 | 10 | 10 | 10 | 10 | 9
Cn1nc(C(F)(F)F)c(C(Cl)(Cl)S(=O)(=O)C2=NOC(C)(C)C2)c1OC(F)F [2.15] | 4 | 0 | 6 | 2 | 4 | 4 | 10 | 10 | 10 | 10 | 8
Cn1nc(C(F)(F)F)c(C(Cl)S(=O)(=O)C2=NOC(C)(C)C2)c1OC(F)F (centres unmarked) [2.16] | 7 | 8 | 4 | 0 | 8 | 7 | 10 | 10 | 10 | 10 | 7
CC1(C)CC(S(=O)(=O)C(Cl)c2cccnc2Cl)=NO1 (centres unmarked) [8.01] | 3 | 0 | 0 | 3 | 0 | 3 | 5 | 8 | 8 | 5 | 0
CC1(C)CC(S(=O)(=O)C(F)c2cccnc2Cl)=NO1 (centres unmarked) [8.02] | 2 | 0 | 6 | 3 | 3 | 3 | 7 | 9 | 10 | 8 | 0
CC1(C)CC(S(=O)(=O)C(F)(Cl)c2cccnc2Cl)=NO1 (centres unmarked) [8.03] | 4 | 0 | 7 | 6 | 4 | 0 | 8 | 10 | 10 | 8 | 6
CC1(C)CC(S(=O)(=O)C(F)(F)c2cccnc2Cl)=NO1 [8.04] | 3 |  |  | 3 | 2 | 0 | 10 | 10 | 10 | 10 | 3
